Assay [1] concerns IL-8. The experiment in a line: TPA-induced IL-8 production in keratinocytes (ELISA). The assay is classed as cell-based, human. As to conditions: Homo sapiens, Keratinocyte, read-out: Percent Inhibition of IL-8. On the technique in general: An ELISA detects its analyte on a solid surface through an enzyme-linked reagent.
The next assay deals with PGE-2. The experiment in a line: IL-1-induced PGE-2 production in fibroblasts (ELISA). The assay is classed as cell-based, human. As to conditions: Homo sapiens, Fibroblast, Fibroblasts (IL-1), read-out: Percent Inhibition of PGE-2. On the procedure: In one study, various concentrations of DHE were added to culture medium and these media were placed on human fibroblast cell cultures (results shown in FIG. 1). […] At 24 hours after treatment, the cell culture medium was removed and assayed by ELISA methods for the expression of PGE-2, various cytokines and chemokines.
(§1) DHE and IE both have inhibitory effects on the production of the inflammatory mediators in fibroblasts.

The subject of assay [2] is tyrosinase. As to the kind of experiment: Melanin synthesis in vitro from L-DOPA catalyzed by tyrosinase (test tube). The assay is classed as biochemical. Here is the method:
Two ml of a sodium phosphate buffer, pH 6.8 containing 0.2% L-DOPA (dihydroxyphenylalanine—a tyrosinase substrate) were placed in each of two test tubes. To one test tube was added 20 microliters of ethanol and to the other tube was added 20 microliters of a 1M stock of IE made up in ethanol (labeled TH-212). To start melanin synthesis from the L-DOPA substrate, 20 microliters of a tyrosinase preparation (0.5 mg/ml) was added to both tubes, the tubes were mixed and left at room temperature. The photograph in FIG. 13 was taken 2 hours after the start of the reaction.

Assay [3] deals with IL-6. The experiment in a line: UV-induced IL-6 production in fibroblasts (ELISA). The format is cell-based, human. Conditions: Homo sapiens, Fibroblast, read-out: Percent Inhibition of IL-6. On the procedure: (§2) In one study, various concentrations of DHE were added to culture medium and these media were placed on human fibroblast cell cultures (results shown in FIG. 1). Cells were either not induced or induced with UVB radiation to stimulate cytokine/PGE-2 production. At 24 hours after treatment, the cell culture medium was removed and assayed by ELISA methods for the expression of PGE-2, various cytokines and chemokines.
as §1

For a further assay, the system named is collagen 1 mRNA. As to the kind of experiment: Collagen mRNA in fibroblasts by RT-PCR. The format is cell-based, human. As to conditions: fibroblast cell cultures treated 72 hours. The text has this: The presently claimed and disclosed inventive concept(s) further contemplates use of various DHE, IE and EV compositions and salts, esters, ethers, and derivatives thereof to mitigate the effects of aging on the skin. For all aging studies, normal human fibroblast cell cultures were used. These cells normally produce collagen, elastin and hyaluronic acid. As the skin ages, the fibroblasts in the dermis lose their ability to produce these three key components of skin, and the skin consequently loses elasticity, thickness and smooth texture. In addition, as fibroblasts age, they increase the expression of certain enzymes that destroy collagen and elastin. There are about 13 of these enzymes, collectively referred to as MMPs (matrix metalloproteinases). One of the principal MMPs, MMP-1, is responsible for collagen degradation. […] Fibroblast cell cultures were treated with either IE, DHE or EV for 72 hours at which time the amount of collagen mRNA present in the cells was determined.

Assay [4] deals with IL-8. As to the kind of experiment: TNF-α-induced IL-8 production in monocytes. The format is cell-based. Conditions: Monocyte, read-out: Percent Inhibition of IL-8. The text has this:
(§3) DHE and IE both have inhibitory effects on the production of the inflammatory mediators in monocytes.

Assay [5] deals with human melanocyte cultures. As to the kind of experiment: Pigment in human melanocyte cultures. The assay is classed as cell-based. Conditions: treated for 9 days.
In the next assay the test system is TIMP-1. As to the kind of experiment: TIMP-1 mRNA in fibroblasts by PCR. The format is cell-based, human. From the text: The presently claimed and disclosed inventive concept(s) further contemplates use of various DHE, IE and EV compositions and salts, esters, ethers, and derivatives thereof to mitigate the effects of aging on the skin. For all aging studies, normal human fibroblast cell cultures were used. These cells normally produce collagen, elastin and hyaluronic acid. As the skin ages, the fibroblasts in the dermis lose their ability to produce these three key components of skin, and the skin consequently loses elasticity, thickness and smooth texture. In addition, as fibroblasts age, they increase the expression of certain enzymes that destroy collagen and elastin. There are about 13 of these enzymes, collectively referred to as MMPs (matrix metalloproteinases). One of the principal MMPs, MMP-1, is responsible for collagen degradation. For experiments herein to determine the effects of DHE, IE and EV on collagen, elastin and hyaluronic acid, fibroblasts were treated with the compounds for 72 hours, mRNA was then isolated, and analyzed for abundance by RT-PCR (Reverse transcriptase-Polymerase Chain Reaction).
Fibroblasts in the skin not only produce enzymes (MMPs) that destroy the skin matrix but they also produce proteins (Tissue Inhibitors of Metalloproteinases, i.e., TIMPS) that inhibit these enzymes. There are several TIMPs, but one that is most important for inhibiting MMPs is TIMP-1. […] Shown in FIG. 11 is PCR data showing the up-regulation of TIMP-1 mRNA by these compounds.

The subject of assay [6] is tyrosinase. As to the kind of experiment: Western immunoblot of tyrosinase abundance in human melanocyte extracts. The format is cell-based. The text has this: FIGS. 14-17 show the skin-lightening effects of topically-applied formulations of isoeugenol and its ester isoeugenol acetate (a.k.a. isoeugenyl acetate) in the treatment of hyperpigmented areas in the skin, wherein a reduction of melanin pigment in the skin is caused by the topical application of the formulations. In addition to blocking a post-tyrosinase step in melanin synthesis, IE and IE acetate can inhibit the expression of the tyrosinase protein in human melanocytes. […] If the cell extracts contain tyrosinase when an aliquot of extract is placed in a tube containing L-DOPA (a tyrosinase substrate) in buffer, the enzyme will convert the DOPA to melanin. The melanin will appear brownish-black in the assay tube. If IE or IE-acetate has inhibited tyrosinase synthesis in melanocytes, then the extracts from these cells will contain no enzyme and will not be able to produce melanin from DOPA in the assay tube. […] In this assay, cell extracts from human melanocytes either left untreated or treated with 200 micromolar of either IE or isoeugenol acetate for 9 days are run on SDS polyacrylamide electrophoresis gels to separate tyrosinase from other proteins. The tyrosinase in the gel is then blotted to a membrane and the tyrosinase detected by staining with a specific anti-tyrosinase antibody. The antibody-bound tyrosinase is then visualized by chemiluminescence.

The test system of a further assay is MCP-1. As to the kind of experiment: LPS-induced MCP-1 production in monocytes. The format is cell-based. Conditions: Monocyte; Monocytes (LPS); 100 uM; read-out: Percent Inhibition of MCP-1.
Description: as §3

Assay [7] deals with IL-6. As to the kind of experiment: UV-induced IL-6 production in keratinocytes (ELISA). As to conditions: Homo sapiens, Keratinocyte, read-out: Percent Inhibition of IL-6. The assay is classed as cell-based, human. On the procedure: as §2
When similar experiments were carried out with human keratinocytes, DHE was again found to markedly suppress the UVR induction of PGE-2, with a concentration of 50 uM inhibiting the production of PGE-2 by over 60% (results shown in FIG. 2). […] Further, since PGE-2 is known to be a principal factor in the development of actinic keratosis and skin cancer, DHE can also be used in treating these conditions.
DHE and IE both have inhibitory effects on production of the inflammatory mediators in keratinocytes.

Consider `CC=Cc1ccc(O)c(OC)c1` [IE, isoeugenol], for which the inhibition at 100 µM in the assay on IL-8 [1] was 75%; in the assay on PGE-2 it was 81%; in the assay on IL-6 [3], 39%; in the assay on IL-8 [4] it was 78%; with MCP-1, 87%; in the assay with IL-6 [7], 93%. For the same compound, the melanin synthesis result with tyrosinase [2] (0.2% L-DOPA, pH 6.8, 20 microliters of 1M stock in 2 ml, tyrosinase, 2 hours, room temperature) was “almost completely blocked”. Also, in the assay on tyrosinase [2] (tubes containing DOPA, IE and tyrosinase, even after 2 weeks), the “darkening of test tubes (melanin production)” value is given as “fail to darken”. The “collagen production (collagen mRNA)” value in the assay with collagen 1 mRNA is “stimulation”. Besides, the “pigment in human melanocyte cultures” value in [5] is reported as “loss of pigment”. The “production of TIMP-1 (TIMP-1 mRNA)” value with TIMP-1 is reported as “significantly stimulate”. The “tyrosinase abundance (relative densitometric units)” value in the assay with tyrosinase [6] (human melanocyte extracts, 200 μM, 9 days, control approximately 7.25 RDU) was “about 3 RDU”. The “tyrosinase present (western immunoblot)” value in the assay on tyrosinase [6] (human melanocytes treated with 200 micromolar for 9 days) was “almost no detectable tyrosinase”.

The term inhibition denotes the percentage by which the read-out fell short of the control.

The values above are taken from patent US9616006B2, “Methods and compositions for treating dermatological diseases and conditions” (priority 2007, dated 2017).
